Laboratory results: patent US10933044B2, “Marine organism-derived extract, compound, and medical composition having niche formation suppressing activity of leukemic stem cells” (WASEDA UNIVERSITY, priority 2016, dated 2021)
Entries after “also recorded” stand apart in the source; their conditions may differ.

How the values were obtained:
[1] = test system: MB-1 cells co-cultured with OP9 cells; test: Screening for cobblestone area (CA) formation inhibitory activity in co-culture of OP9 cells and MB-1 cells; assay type: cell-based, human; conditions: OP9/MB-1 co-culture, 48 hours incubation with sample; tested at 10, 2, 0.4 and 0.08 μg/mL; microscopic observation
Method: In individual wells of a 96-well plate, OP9 cells (9.0×10^3) treated with 3 μg/mL mitomycin C (Sigma-Aldrich Co. LLC., USA) for 3 hours (37° C., 5% CO2) were seeded and incubated at 37° C. under 5% CO2. The culture liquid used herein was α MEM (Gibco) containing 20% inactivated FBS (MP Biomedicals, LLC., USA) and 1% penicillin-streptomycin (P/S, Gibco, Thermo Fisher Scientific Inc., USA). The following day, to the individual wells having OP9 cells seeded therein, MB-1 cells (2.5×10^3) were seeded. In the co-culture of the OP9 cells and MB-1 cells, the culture liquid used herein was α MEM containing 10% inactivated FBS (Biowest SAS, France), 1% P/S, 1% non-essential amino acids (NEAA, Invitrogen, Thermo Fisher Scientific Inc.) and 10 μM β-mercaptoethanol (Gibco). Forty-eight hours later, a Porifera sample (2 μL) dissolved in DMSO was added and diluted five times to prepare four solutions different in concentration (10 μg/mL, 2 μg/mL, 0.4 μg/mL and 0.08 μg/mL). After incubation was performed for 48 hours at 37° C. under 5% CO2, fixation was performed with 4% paraformaldehyde (Wako Pure Chemical Industries, Ltd.), nuclear-staining was performed with Hoechst 33342 (Dojindo Laboratories, Kumamoto) and observation was made with a microscope (Type IX71, Olympus Corporation Ltd., Tokyo). […]

[2] = test system: TF-1 cells co-cultured with OP9 cells; test: Niche (CA) formation suppression in co-culture of TF-1 cells and OP9 cells; assay type: cell-based, human; conditions: TF-1/OP9 co-culture; Stelliferin A at 0.4 μg/mL, two days
Method: In order to verify that the action of Stelliferin A to suppress niche formation by MB-1 cells is not specific to MB-1 cells, the actions of a fat-soluble fraction of S12111 and Stelliferin A against niche formation by TF-1 cells were evaluated in a co-culture system of TF-1 cells (which have leukemic stem-cell-like characteristics similarly to MB-1 cells) and OP9 cells.
The experiment was carried out basically in the same manner as employed in the evaluation with MB-1 cells mentioned above except that TF-1 cells (strain derived from human bone marrow erythroleukemia cells) were used in place of MB-1 cells. In evaluation of Stelliferin A, more specifically, evaluation of niche formation suppressive action of Stelliferin A in the co-culture system of TF-1 cells and OP9 cells, OP9 cells (8.0×10^4) treated with MMC were seeded in individual wells of a 24-well plate. After culture was performed for one day, TF-1 cells (4.0×10^4) were seeded. The culture liquid used herein was IMDM (Gibco) containing 10% inactivated FBS (Biowest SAS, France) and 1% P/S. After culture was performed for one day, medium was exchanged. After culture was performed for further one day, Stelliferin A was added in a concentration of 0.4 μg/mL. After culture was performed for two days, the presence or absence of CA formation was observed by a microscope.

MB-1 cells [3] = test: CA reformation when free MB-1 cells from treated co-culture are co-cultured with fresh OP9 cells; assay type: cell-based, human; conditions: Stelliferin A 0.4 μg/mL Day 4 to Day 6, then co-culture in the absence of Stelliferin A, examined Day 8
Method: (§1) On Day 1, OP9 cells were seeded in a culture medium in the same manner as above and incubated. On Day 2, MB-1 cells were seeded and co-cultured with the OP9 cells. On day 4, Stelliferin A was added so as to be 0.4 μg/mL and incubated.

[4] = test system: MB-1 cells co-cultured with OP9 cells; test: Stereoscopic positional relationship between mCherry OP9 cells and GFP MB-1 cells by confocal microscope; assay type: cell-based, human; conditions: Stelliferin A 0.4 μg/mL, two days
Method: The effect of a Stelliferin compound on the stereoscopic positional relationship between OP9 cells (which serve as support cells in CA formation in the mouse mesenchymal cells) and MB-1 cells was examined by using OP9 cells and MB-1 cells to which fluorescent proteins were separately introduced.
To a 35-mm dish having a glass bottom, OP9 cells, which were treated with MMC and to which fluorescent protein mCherry was introduced, were seeded at a density of 4.0×10^5 cells. After culture was performed for one day, fluorescent protein GFP introduced MB-1 cells were seeded at a density of 2.0×10^5 cells. After culture was performed for two days, Stelliferin A was added in a concentration of 0.4 μg/mL. After culture was performed for two days, the stereoscopic positional relationship between the cells was photographed with a confocal microscope (Type IX81, Olympus Corporation), and examined.

[5] = test system: MB-1 cells co-cultured with OP9 cells; test: CA reformation after Stelliferin A treatment of OP9/MB-1 co-culture and exchange of culture medium; assay type: cell-based, human; conditions: Stelliferin A 0.4 μg/mL Day 4 to Day 6, fresh medium without it, examined Day 8
Method: as §1

[6] = test system: MB-1 cells co-cultured with OP9 cells; test: Apoptosis detection with JC-1 mitochondrial membrane potential reagent in co-culture of MB-1 cells and OP9 cells; assay type: cell-based, human
Method: The effect of the Stelliferin compound on CA formed by co-culture of OP9 cells (serving as support cells for the CA formation in the mouse mesenchymal cells) and MB-1 cells was examined by apoptosis detection reagent JC-1.
(§2) To a 24-well plate, OP9 cells treated with MMC were seeded at a density of 8.0×10^4 cells per well. After culture was performed for one day, MB-1 cells were seeded at a density of 4.0×10^4 cells per well. After culture was performed for two days, Stelliferin A was added in a concentration of 0.4 μg/mL. After culture was performed for one day, imatinib was added in a concentration of 1.0 μM. After culture was performed for one day, apoptosis was detected in the manner described below.
Apoptosis was detected by JC-1 Mitochondrial Membrane Potential Assay Kit. To each well, 50 μL of JC-1 Reagent of JC-1 Mitochondrial Membrane Potential Assay Kit was added and incubation was carried out for 20 minutes. Thereafter, 0.05% trypsin-EDTA was added to each well and incubation was carried out for 4 minutes. After a culture liquid was added, aliquots were separately taken and then centrifuged (1,200 rpm, 4 minutes) to collect cells. The collected cells were separately suspended in 300 μL of a culture liquid and analyzed by a cell sorter (Type SH-800, SONY Corporation, Tokyo). The ratios of red fluorescent negative cells in individual wells were calculated.

[7] = test system: MB-1 cells co-cultured with OP9 cells; test: Apoptosis detection with NucView 488 Caspase-3 Assay Kit in co-culture of MB-1 cells and OP9 cells; assay type: cell-based, human; conditions: for Apoptosis induction of MB-1 cells (%): NucView 488 positive cells
Method: as §2, with “To a 12-well plate, OP9” for “To a 24-well plate, OP9”, “density of 1.6×10^5 cells per” for “density of 8.0×10^4 cells per”, “density of 8.0×10^4 cells per” for “density of 4.0×10^4 cells per”, “concentration of 0.2 μM or 1.0 μM.” for “concentration of 1.0 μM.”
Apoptosis was detected by use of NucView 488 Caspase-3 Assay Kit for Live Cells (Biotium, USA) or a fluorescent reagent JC-1 (Cayman Chemical, USA) which detects mitochondrial membrane potential difference.
In evaluation by NucView 488, 0.05% trypsin-EDTA was added to individual wells. After incubation for 4 minutes, the culture liquid was added. Aliquots were separately taken and then centrifuged (1,200 rpm, 4 minutes) to collect cells. Each of the suspensions of the cells collected was controlled so as to obtain a density of 1.0×10^6 cells per mL. Aliquots (200 μL) were separately taken from the suspensions. To the cells thus taken, 5 μL of NucView 488 substrate stock solution of NucView 488 Caspase-3 Assay Kit for Live Cells was added and incubated in the darkness at normal temperature for 20 minutes. Culture liquid (300 μL) was added and subjected to analysis by a cell sorter (Type SH-800, SONY Corporation, Tokyo). The ratio of green fluorescent positive cells per each well was calculated.

OP9 cells = test: CA formation when OP9 cells exposed to Stelliferin A are co-cultured with unexposed MB-1 cells; assay type: cell-based, mouse; conditions: OP9 cells exposed to 0.4 μg/mL Day 2 to Day 4, then unexposed MB-1 cells; compared to unexposed control
Method: On Day 1, OP9 cells were seeded in a culture medium in the same manner as above and incubated. On Day 2, Stelliferin A was added so as to be 0.4 μg/ml, and incubated. On Day 4, fresh MB-1 cells not exposed to Stelliferin A were seeded and co-cultured. On Day 6, whether CA was formed or not was examined. Also, for comparison, CA formation was examined in a control system where OP9 cells and MB-1 cells were co-cultured in the absence of Stelliferin A in accordance with the above schedule.

MB-1 cells [8] = test: Apoptosis inducing action by imatinib alone in culture system of MB-1 cells alone (NucView 488); assay type: cell-based, human; conditions: imatinib 0.2 μM or 1.0 μM, one day; compared to MB-1 cells co-cultured in the absence of Stelliferin A
Method: Apoptosis inducing action by imatinib alone in a culture system of MB-1 cells alone was evaluated.
From a co-culture system with OP9 cells, MB-1 cells were purified by a cell sorter and seeded to 12-well plates at a density of 2.0×10^5 cells per well, and then, imatinib was added in a concentration of 0.2 μM or 1.0 μM. After culture was performed for one day, apoptosis was detected in the manner described below.
Apoptosis was detected by use of NucView 488 Caspase-3 Assay Kit for Live Cells (Biotium, USA) in the same manner as in the apoptosis detection performed in the co-culture system of MB-1 cells and OP9 cells.

| Compound | CA formation inhibitory activity [1] | Niche formation by TF-1 cells [2] | CA reformation of treated free MB-1 cells with fresh OP9 cells (MB-1 cells [3]) | Position of MB-1 cells relative to OP9 cell layer [4] | CA reformation after removal of Stelliferin A [5] | Apoptosis induction (JC-1, mitochondrial membrane potential difference disappeared) ([6]; co-presence of Stelliferin A 0.4 μg/mL and imatinib 1.0 μM) | Apoptosis induction (JC-1) when dose of imatinib was changed ([6]; in the presence of Stelliferin A, imatinib dose varied) | Apoptosis induction of MB-1 cells (%) ([7]; Stelliferin A present at 0.4 μg/mL plus imatinib 0.2 μM) | Apoptosis induction of MB-1 cells (%) ([7]; Stelliferin A present at 0.4 μg/mL plus imatinib 1.0 μM) | Apoptosis induction of MB-1 cells (%) ([7]; Stelliferin A present at 0.4 μg/mL, imatinib absent) | Ratio of MB-1 cells which induced apoptosis / NucView peak representing caspase 3 activity ([7]; presence of Stelliferin A with imatinib 0.2 μM and 1.0 μM compared to absence of Stelliferin A) | Number of CAs formed with OP9 cells exposed to Stelliferin A (OP9 cells) | Sensitivity of MB-1 cells cultured alone to imatinib (apoptosis) (MB-1 cells [8]) | Apoptosis induction of MB-1 cells (%) ([7]; imatinib 0.2 μM, Stelliferin A absent) | Apoptosis induction of MB-1 cells (%) ([7]; imatinib 1.0 μM, Stelliferin A absent) |
| --- | --- | --- | --- | --- | --- | --- | --- | --- | --- | --- | --- | --- | --- | --- | --- |
| Stelliferin B | 0.08 µg/mL | – | – | – | – | – | – | – | – | – | – | – | – | – | – |
| Stelliferin A | 0.08 µg/mL | suppressed niche formation by TF-1 cells | CA was reformed | MB-1 cells were exposed to the upper side of the OP9 cell layer | CA was not reformed | apoptosis was induced | apoptosis was also induced in the dose-dependent manner of imatinib | 22.39% | 44.63% | 16.03% | increased depending on each of the concentrations of Stelliferin A and imatinib; also recorded: statistically significantly (Student t test, p<0.05) increased | the number of CAs formed was low | – | – | – |
| Cc1ccc(NC(=O)c2ccc(CN3CCN(C)CC3)cc2)cc1Nc1nccc(-c2cccnc2)n1 [Imatinib, imatinib, reference compound] | – | – | – | – | – | – | – | – | – | – | – | – | high sensitivity | 8.07% | 12.14% |
